Laboratory results: patent US20240309447A1, “METHODS AND KITS FOR PREPARING A SAMPLE […] OR MORE RNA MOLECULES FOR SEQUENCING” (The Hong Kong University of Science and Technology, priority 2023, published 2024)

Legend:
Type in all cases: biochemical
[1] = biological target: T1, E coli. poly(A) polymerase (Escherichia coli, UniProt P0ABF1); experiment: Poly(A) polymerase-based reaction with different nucleotide analogues and their combination on UnaG-120A mRNA, Fragment Analyzer; conditions: for addition to UnaG-120A mRNA by poly(A) polymerase: 1 mM total analogue, 37° C., 15 minutes; for appearance of the RNA product: UnaG-120A mRNA, Fragment Analyzer
Protocol: In this example, the ability of poly(A) polymerase-based reaction to add different nucleotide analogues to the 3′ termini of UnaG-120A mRNA as the oligo nucleotide analogue sequence has been tested. […] The 10 μL of the reaction mixture was incubated at 37° C. for 15 minutes. The reacted RNA products were visualized using Fragment Analyzer.

[2] = biological target: T1, E coli. poly(A) polymerase; experiment: Poly(A) polymerase-based extension of C, G and U-terminated model short RNAs, Urea-PAGE; conditions: for addition of oligo nucleotide analogue to model short RNAs with different 3′ terminal bases: 1 mM, 37° C., 15 minutes
Protocol: In this example, 2-Amino-ATP, 2-Amino-6-Cl-purine-rTP and 2′-F-dATP have been tested for poly(A) polymerase-based extension to add the respective oligo nucleotide analogue sequences to the 3′ termini of model short RNAs with different terminal bases other than A, i.e. C, G and U-terminated model short RNAs as shown in Table 1. ATP was used as the positive control. The reaction cocktail for the poly(A) polymerase-based extension for each model short RNA was prepared as described in Table 2. The 10 μL of the reaction mixture was incubated at 37° C. for 15 minutes to allow the addition of 2-Amino-6-Cl-purine-rTP to the model short RNAs. The reacted RNA products were visualized using Urea-PAGE.

[3] = biological target: T1, E coli. poly(A) polymerase; experiment: Poly(A) polymerase-based extension of model short RNA (A-terminated), Urea-PAGE; conditions: for addition of nucleotide analogue sequence to the 3′ termini of the model short RNA: 1 mM analogue, 15 minutes, model short RNA (A-terminated)
Protocol: The reaction cocktail was used in the subsequent studies as described in examples below.
ATP was used as the positive control. The reaction cocktail for the poly(A) polymerase-based extension for each of the nucleoside analogue triphosphates and ATP was prepared as described in Table 2. The 10 μL of the reaction cocktail was incubated at 37° C. for 15 minutes to allow the extension of the adenine nucleotides (A) or nucleotide analogues. The reacted RNA products were visualized using Urea-PAGE.
The experiment was further repeated for 2-Amino-6-Cl-purine-rTP addition by poly(A) polymerase-based extension with different incubation times, i.e. 5, 10, 15, 20 minutes respectively. Addition of ATP by poly(A) polymerase-based extension with 20-minute incubation time was used as the positive control. The reacted RNA products were visualized using Urea-PAGE.

[4] = biological target: T1, E coli. poly(A) polymerase; experiment: One-pot 3′ extension of model short RNA, Urea-PAGE; conditions: 15 minutes analogue, then ATP added, 37° C.
Protocol: In this example, the reaction cocktail for the one-pot 3′ extension of model short RNA (as shown in Table 1) was prepared as described in Table 4. The reaction cocktail (without ATP) was incubated at 37° C. for 15 minutes to allow for 2-Amino-6-Cl-purine-rTP addition. After 15 minutes of reaction, 1 μL of 10 mM ATP (New England BioLabs®) was directly added into the reaction mixture, and further incubated for different durations of time at 37° C.

[5] = biological target: T1, E coli. poly(A) polymerase; experiment: Poly(A) polymerase-based extension of model mRNA mixture, Fragment Analyzer; conditions: mixture of CLuc-53AGGCCCCU, EGFP-40A, UnaG-120A; 15-minute extension
Description: In this example, three model mRNAs CLuc-53AGGCCCCU, EGFP-40A, and UnaG-120A as shown in Table 1 are mixed in an equal amount to create a model mRNA mixture. The same poly(A) polymerase-based extension as described in Example 5 was used to add 2-Amino-6-Cl-purine-rTP to the model RNA mixture. Fragment Analyzer (Agilent®) was used to measure the lengths of the model RNA mixture before and after the reaction.

T1 sequence (P0ABF1 11-465): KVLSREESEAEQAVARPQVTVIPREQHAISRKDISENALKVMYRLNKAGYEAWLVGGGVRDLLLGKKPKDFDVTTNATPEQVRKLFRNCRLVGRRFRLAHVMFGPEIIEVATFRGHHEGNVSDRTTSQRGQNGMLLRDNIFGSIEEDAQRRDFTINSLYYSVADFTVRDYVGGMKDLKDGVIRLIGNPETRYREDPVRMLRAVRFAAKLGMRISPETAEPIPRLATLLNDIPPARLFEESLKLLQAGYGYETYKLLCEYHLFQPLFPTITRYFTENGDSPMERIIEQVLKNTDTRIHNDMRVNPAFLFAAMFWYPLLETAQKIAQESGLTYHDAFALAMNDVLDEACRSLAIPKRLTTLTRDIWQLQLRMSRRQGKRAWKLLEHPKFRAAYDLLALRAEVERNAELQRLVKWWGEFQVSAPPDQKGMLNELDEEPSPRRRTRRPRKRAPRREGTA

| Compound | addition to UnaG-120A mRNA by poly(A) polymerase [1] | appearance of the RNA product [1] | comparison among nucleotide analogues [2] | addition of oligo nucleotide analogue to model short RNAs with different 3′ terminal bases [2] | addition of nucleotide analogue sequence to the 3′ termini of the model short RNA ([3]; 37° C.) | time within which the reaction was complete ([3]; 37° C., 1 mM) [min] | nucleotides added to the 3′ terminus of model short RNA ([3]; 5 minutes incubation, 37° C., 1 mM) | length of tailed model short RNA product ([3]; 5 minutes incubation, original RNA 136 nt) [nt] | sequential addition of oligo analogue sequence and oligo(A) sequence [4] | addition of oligo sequence to model mRNAs (upward band shift) [5] |
| --- | --- | --- | --- | --- | --- | --- | --- | --- | --- | --- |
| Nc1nc(Cl)c2ncn(C3OC(COP(=O)(O)OP(=O)(O)OP(=O)(O)O)C(O)C3O)c2n1 (stereo not shown) [2-Amino-6-Cl-purine-rTP] | can be added | upshifted clear main band | produced the best results | successfully added | successfully added | 10 to 20 | over 60 nts | > 196 | successfully added | added to all model mRNAs |
| Nc1nc(N)c2ncn(C3OC(COP(=O)(O)OP(=O)(O)OP(=O)(O)O)C(O)C3O)c2n1 (stereo not shown) [2-Amino-ATP] | can be added | distribution of RNA sizes shown as a smear | – | successfully added | successfully added | – | – | – | – | – |
| Nc1ncnc2c1ncn2C1OC(COP(=O)(O)OP(=O)(O)OP(=O)(O)O)C(O)C1F (stereo not shown) [2′-F-dATP] | – | – | – | successfully added | successfully added | – | – | – | – | – |
